From US11179369B2, “Sustained release pharmaceutical compositions” (Wyeth, LLC, priority 2003, dated 2021)

Assays:
[1] = Side effects on dosing subject patients with aplindore; format: in vivo, human; conditions: correlated with time period of maximal plasma levels
Description: In especially preferred embodiments of each of the formulations of the invention, the active compound is aplindore. Aplindore and pharmaceutically acceptable salts thereof are particularly well-suited to treating various disorders of the central nervous system and more particularly to those central nervous disorders relating to the dopaminergic system. Because aplindore (or any drug) requires a sufficient exposure level to achieve its desired effects, the drug must be dosed in a manner sufficient to achieve the particular blood plasma level over a period of time deemed sufficient to meet the clinical objective sought. […] Simply reducing the dose would not always be satisfactory since, while the side effects might lessen or disappear, the overall drug exposure levels might not be satisfactory to treat the particular condition.

Water solubility = format: physicochemical
Experimental: The tablet shapes and total tablet weights were kept same for all four different strengths and for the two different release rate tablets. […] In the formulations of aplindore fumarate 5.0 mg, 2.0 mg, 0.5 mg and 0.05 mg medium and slow release formulations, Lactose Fast Flo has been chosen as the water-soluble compensating excipient. […] It has been used in the 10.0 mg medium release formulation.

Compound | side effects [1] | water solubility (Water solubility)
O=C1Cc2c(ccc3c2O[C@@H](CNCc2ccccc2)CO3)N1 [aplindore, S-2-[(Benzylamino)-methyl]-2,3,8,9-tetrahydro-7H-1,4-dioxino[2,3-e]indol-8-one] | side effects including nausea and vomiting | 
O=C(O)/C=C/C(=O)O.O=C1Cc2c(ccc3c2O[C@@H](CNCc2ccccc2)CO3)N1 [aplindore fumarate] |  | highly water-soluble
